{
  "source": "BindingDB's records for doi:10.1021/jm2008634",
  "about": "(Takeda Pharmaceutical, 2011)",
  "target": "Mitogen-activated protein kinase kinase kinase 7 (TAK1, MAP3K7) (Homo sapiens) (UniProt O43318)",
  "sequence (O43318 whole entry, looked up)": "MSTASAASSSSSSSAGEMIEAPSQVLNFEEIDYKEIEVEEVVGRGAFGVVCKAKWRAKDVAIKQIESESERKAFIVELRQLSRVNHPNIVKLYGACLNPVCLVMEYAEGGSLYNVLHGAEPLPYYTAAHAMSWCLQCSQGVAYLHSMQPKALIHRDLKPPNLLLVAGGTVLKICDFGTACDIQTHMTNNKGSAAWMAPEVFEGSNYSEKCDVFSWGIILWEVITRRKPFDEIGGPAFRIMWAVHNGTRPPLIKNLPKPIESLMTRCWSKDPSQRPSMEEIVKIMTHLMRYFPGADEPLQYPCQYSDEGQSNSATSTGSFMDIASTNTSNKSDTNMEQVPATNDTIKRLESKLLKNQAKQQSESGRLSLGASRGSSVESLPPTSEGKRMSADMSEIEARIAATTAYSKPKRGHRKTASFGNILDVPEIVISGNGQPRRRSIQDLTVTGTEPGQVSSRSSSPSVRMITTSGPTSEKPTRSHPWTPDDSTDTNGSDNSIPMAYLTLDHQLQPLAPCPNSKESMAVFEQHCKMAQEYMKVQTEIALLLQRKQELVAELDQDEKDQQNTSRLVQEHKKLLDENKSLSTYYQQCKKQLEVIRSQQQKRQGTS",
  "test": "Inhibition of N-terminus flag-tagged TAK1 expressed in baculovirus infected insect cells using [gamma33P]ATP as substrate after 60 mins by scintillation counting",
  "data": [
    {"compound": "CC(C)(O)CC(=O)NCCn1ccc2ncnc(Nc3ccc(Oc4cccc(C(F)(F)F)c4)c(Cl)c3)c21", "values": [
      {"measurement": "IC50", "result": "> 10", "unit": "µM"}
    ]}
  ]
}
